Test results: PubChem BioAssay (NCI)
Several values for one entry are separate records, joined by “and”; a condition that tells them apart may be missing. Identical values can stand only once.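 Five concentrations, 48 hours, 96-well plates. GI50 is the concentration that inhibits growth by half. TGI is the concentration that stops growth completely.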

What was measured:
Experiment in all cases: NCI tumour cell line growth inhibition, 48 h
786-0 renal = system: 786-0 renal
A498 renal = system: A498 renal
A549 NSCLC = system: A549 NSCLC
ACHN renal = system: ACHN renal
BT-549 breast = system: BT-549 breast
COLO 205 colon = system: COLO 205 colon
DU-145 prostate = system: DU-145 prostate
HCC-2998 colon = system: HCC-2998 colon
HCT-116 colon = system: HCT-116 colon
HL-60(TB) leukemia = system: HL-60(TB) leukemia
HOP-62 NSCLC = system: HOP-62 NSCLC
HOP-92 NSCLC = system: HOP-92 NSCLC
HS 578T breast = system: HS 578T breast
HT29 colon = system: HT29 colon
IGROV1 ovarian = system: IGROV1 ovarian
KM12 colon = system: KM12 colon
LOX IMVI melanoma = system: LOX IMVI melanoma
M14 melanoma = system: M14 melanoma
MALME-3M melanoma = system: MALME-3M melanoma
MCF7 breast = system: MCF7 breast
MDA-MB-231 breast = system: MDA-MB-231 breast
MDA-MB-435 = system: MDA-MB-435
NCI-H226 lung = system: NCI-H226 lung
NCI-H460 lung = system: NCI-H460 lung
NCI-H522 lung = system: NCI-H522 lung
NCI/ADR-RES ovarian = system: NCI/ADR-RES ovarian
OVCAR-3 ovarian = system: OVCAR-3 ovarian
OVCAR-4 ovarian = system: OVCAR-4 ovarian
OVCAR-5 ovarian = system: OVCAR-5 ovarian
OVCAR-8 ovarian = system: OVCAR-8 ovarian
PC-3 prostate = system: PC-3 prostate
RPMI-8226 leukemia = system: RPMI-8226 leukemia
RXF 393 renal = system: RXF 393 renal
SF-268 CNS = system: SF-268 CNS
SF-295 CNS = system: SF-295 CNS
SF-539 CNS = system: SF-539 CNS
SK-MEL-2 melanoma = system: SK-MEL-2 melanoma
SK-MEL-28 melanoma = system: SK-MEL-28 melanoma
SK-MEL-5 melanoma = system: SK-MEL-5 melanoma
SK-OV-3 ovarian = system: SK-OV-3 ovarian
SN12C renal = system: SN12C renal
SNB-19 CNS = system: SNB-19 CNS
SNB-75 CNS = system: SNB-75 CNS
T-47D breast = system: T-47D breast
TK-10 renal = system: TK-10 renal
U251 CNS = system: U251 CNS
UACC-257 melanoma = system: UACC-257 melanoma
UACC-62 melanoma = system: UACC-62 melanoma
UO-31 renal = system: UO-31 renal
CAKI-1 renal = system: CAKI-1 renal
CCRF-CEM leukemia = system: CCRF-CEM leukemia
EKVX NSCLC = system: EKVX NSCLC
HCT-15 colon = system: HCT-15 colon
K-562 leukemia = system: K-562 leukemia
MOLT-4 leukemia = system: MOLT-4 leukemia
NCI-H23 lung = system: NCI-H23 lung
SR leukemia = system: SR leukemia
SW-620 colon = system: SW-620 colon

Cc1ccc(/C=C2\CN(Cc3cn(CCNc4ccnc5cc(Cl)ccc45)nn3)C/C(=C\c3ccc(C)cc3)C2=O)cc1
GI50 (786-0 renal): 1850 nM
TGI (786-0 renal): 3360 nM
GI50 (A498 renal): 850 nM
TGI (A498 renal): 2200 nM
GI50 (A549 NSCLC): 1800 nM
TGI (A549 NSCLC): 3730 nM
GI50 (ACHN renal): 1780 nM
TGI (ACHN renal): 3250 nM
GI50 (BT-549 breast): 1890 nM
TGI (BT-549 breast): 3350 nM
GI50 (COLO 205 colon): 1890 nM
TGI (COLO 205 colon): 3420 nM
GI50 (DU-145 prostate): 1760 nM
TGI (DU-145 prostate): 3170 nM
GI50 (HCC-2998 colon): 1920 nM
TGI (HCC-2998 colon): 3440 nM
GI50 (HCT-116 colon): 1680 nM
TGI (HCT-116 colon): 3270 nM
GI50 (HL-60(TB) leukemia): 2230 nM
TGI (HL-60(TB) leukemia): 5260 nM
GI50 (HOP-62 NSCLC): 1960 nM
TGI (HOP-62 NSCLC): 3470 nM
GI50 (HOP-92 NSCLC): 1450 nM
TGI (HOP-92 NSCLC): 3010 nM
GI50 (HS 578T breast): 1970 nM
TGI (HS 578T breast): 5530 nM
GI50 (HT29 colon): 1910 nM
TGI (HT29 colon): 3850 nM
GI50 (IGROV1 ovarian): 1920 nM
TGI (IGROV1 ovarian): 3730 nM
GI50 (KM12 colon): 1650 nM
TGI (KM12 colon): 3280 nM
GI50 (LOX IMVI melanoma): 1760 nM
TGI (LOX IMVI melanoma): 3360 nM
GI50 (M14 melanoma): 2200 nM
TGI (M14 melanoma): 4620 nM
GI50 (MALME-3M melanoma): 1700 nM
TGI (MALME-3M melanoma): 3470 nM
GI50 (MCF7 breast): 1620 nM
TGI (MCF7 breast): 3460 nM
GI50 (MDA-MB-231 breast): 2140 nM
TGI (MDA-MB-231 breast): 4620 nM
GI50 (MDA-MB-435): 1660 nM
TGI (MDA-MB-435): 3100 nM
GI50 (NCI-H226 lung): 2030 nM
TGI (NCI-H226 lung): 4800 nM
GI50 (NCI-H460 lung): 1540 nM
TGI (NCI-H460 lung): 3380 nM
GI50 (NCI-H522 lung): 1980 nM
TGI (NCI-H522 lung): 3660 nM
GI50 (NCI/ADR-RES ovarian): 2320 nM
TGI (NCI/ADR-RES ovarian): 5140 nM
GI50 (OVCAR-3 ovarian): 1800 nM
TGI (OVCAR-3 ovarian): 3240 nM
GI50 (OVCAR-4 ovarian): 1660 nM
TGI (OVCAR-4 ovarian): 3570 nM
GI50 (OVCAR-5 ovarian): 1800 nM
TGI (OVCAR-5 ovarian): 3540 nM
GI50 (OVCAR-8 ovarian): 2030 nM
TGI (OVCAR-8 ovarian): 4850 nM
GI50 (PC-3 prostate): 1750 nM
TGI (PC-3 prostate): 3740 nM
GI50 (RPMI-8226 leukemia): 1820 nM
TGI (RPMI-8226 leukemia): 4980 nM
GI50 (RXF 393 renal): 1670 nM
TGI (RXF 393 renal): 3360 nM
GI50 (SF-268 CNS): 2040 nM
TGI (SF-268 CNS): 4200 nM
GI50 (SF-295 CNS): 1990 nM
TGI (SF-295 CNS): 3730 nM
GI50 (SF-539 CNS): 1790 nM
TGI (SF-539 CNS): 3260 nM
GI50 (SK-MEL-2 melanoma): 1990 nM
TGI (SK-MEL-2 melanoma): 3650 nM
GI50 (SK-MEL-28 melanoma): 1740 nM
TGI (SK-MEL-28 melanoma): 3260 nM
GI50 (SK-MEL-5 melanoma): 1700 nM
TGI (SK-MEL-5 melanoma): 3120 nM
GI50 (SK-OV-3 ovarian): 1900 nM
TGI (SK-OV-3 ovarian): 3570 nM
GI50 (SN12C renal): 1930 nM
TGI (SN12C renal): 3950 nM
GI50 (SNB-19 CNS): 1820 nM
TGI (SNB-19 CNS): 3430 nM
GI50 (SNB-75 CNS): 1610 nM
TGI (SNB-75 CNS): 3530 nM
GI50 (T-47D breast): 2500 nM
TGI (T-47D breast): 6530 nM
GI50 (TK-10 renal): 1910 nM
TGI (TK-10 renal): 3360 nM
GI50 (U251 CNS): 1570 nM
TGI (U251 CNS): 3010 nM
GI50 (UACC-257 melanoma): 1700 nM
TGI (UACC-257 melanoma): 3380 nM
GI50 (UACC-62 melanoma): 1880 nM
TGI (UACC-62 melanoma): 3430 nM
GI50 (UO-31 renal): 1440 nM
TGI (UO-31 renal): 2850 nM

CCCC(=O)Nc1cc(/C=C/C(=O)N2C[C@H]3C[C@@]34C2=CC(=O)c2[nH]cc(C)c24)n(C)c1
TGI (A498 renal): < 2.5 nM
TGI (A549 NSCLC): 25000 nM
TGI (CAKI-1 renal): < 2.5 nM
TGI (CCRF-CEM leukemia): < 2.5 nM
TGI (COLO 205 colon): 281 nM
TGI (EKVX NSCLC): 1150 nM
TGI (HCC-2998 colon): < 2.5 nM
TGI (HCT-116 colon): 11000 nM
TGI (HCT-15 colon): 25000 nM
TGI (HL-60(TB) leukemia): < 2.5 nM
TGI (HOP-62 NSCLC): 25000 nM
TGI (HT29 colon): 15400 nM
TGI (K-562 leukemia): 25000 nM
TGI (KM12 colon): 267 nM and 1120 nM
TGI (M14 melanoma): 25000 nM
TGI (MCF7 breast): 25000 nM
TGI (MOLT-4 leukemia): < 2.5 nM
TGI (NCI-H226 lung): 250 nM
TGI (NCI-H23 lung): 5.58 nM
TGI (NCI-H522 lung): < 2.5 nM
TGI (NCI/ADR-RES ovarian): 110 nM and 50.7 nM
TGI (OVCAR-3 ovarian): 9.47 nM
TGI (OVCAR-4 ovarian): 11.1 nM
TGI (OVCAR-5 ovarian): 25000 nM
TGI (OVCAR-8 ovarian): < 2.5 nM
TGI (PC-3 prostate): 25000 nM
TGI (RPMI-8226 leukemia): 164 nM
TGI (SF-268 CNS): > 100000 nM
TGI (SF-295 CNS): 388 nM
TGI (SK-MEL-2 melanoma): 25000 nM
TGI (SK-MEL-28 melanoma): 6.78 nM
TGI (SK-MEL-5 melanoma): 1040 nM
TGI (SK-OV-3 ovarian): 352 nM and 861 nM
TGI (SN12C renal): 257 nM
TGI (SNB-19 CNS): 2860 nM and 13200 nM
TGI (SNB-75 CNS): 5.27 nM
TGI (SR leukemia): < 2.5 nM
TGI (SW-620 colon): 25000 nM and 7750 nM
TGI (U251 CNS): 1110 nM
TGI (UACC-62 melanoma): < 2.5 nM
